Assay results reported in the supplement of paper PMC8988213.
Counter-ions that a name gives are not always drawn.

What was measured:
[1] = tested on: ID188 patient-derived PDAC 2D line (pre-FOLFIRINOX); test: normalised area under dose-response curve (viability relative to DMSO, 7 doses up to 10 µM) (fraction (AUC)); higher = less sensitive (more viability retained); conditions: 72 h; top dose: 10 µM
Outline: (§1)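 2D PDAC cells grown out from patient-derived organoids were robotically seeded in 96-well plates at 1,500–3,000 cells/well and kept overnight at 37°C in 5% CO2. Compounds from a SelleckChem library were then applied for 72 h at seven concentrations, made as a 3-fold dilution series with 10 µM as the highest. CellTiter-Glo luminescence was measured 10 min later. Viability was normalised to control wells, and the GRmetrics R package was used to derive the area under the dose-response curve.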

[2] = tested on: ID211 patient-derived PDAC 2D line (post-FOLFIRINOX); test: as above; conditions: 72 h; top dose: 10 µM
Outline: as §1

| SMILES | normalised area under dose-response curve [1] | normalised area under dose-response curve [2] |
| --- | --- | --- |
| CN[C@@H](C)C(=O)N[C@H](C(=O)N1CCC[C@H]1C(=O)Nc1snnc1-c1ccccc1)C1CCCCC1 [GDC-0152] | 0.667 | 0.849 |
| Cn1nccc1Nc1nccc(-c2ccn([C@H](CO)c3ccc(Cl)c(F)c3)c(=O)c2)n1 [GDC-0994] | 0.824 | 0.677 |
| N#CN=C(NCCCCCCOc1ccc(Cl)cc1)Nc1ccncc1 [GMX1778 (CHS828)] | 0.283 | 0.296 |
| CC[C@H](C)n1cc(C)c2c(C(=O)NCc3c(C)cc(C)[nH]c3=O)cc(-c3ccc(N4CCNCC4)nc3)cc21 [GSK126] | 1.02 | 0.95 |
| Cc1cc(C)c(CNC(=O)c2cc(-c3ccc(N4CCN(C)CC4)nc3)cc3c2c(C)cn3C(C)C)c(=O)[nH]1 [GSK503] | 0.992 | 0.891 |
| CC(C)(C)S(=O)(=O)c1ccc2nccc(Nc3n[nH]c4ccc(F)cc34)c2c1 [GSK583] | 0.9 | 0.893 |
| O=C(NC[C@H](O)CN1CCc2ccccc2C1)c1ccnc(NC2CCC2)c1 [GSK591] | 0.843 | 0.881 |
| CC(C)(C)C(=O)N1N=CC[C@H]1c1ccccc1 [GSK963] | 0.939 | 0.857 |
| CCCOc1ccn2c(C(C)=O)cc(-c3ccccc3S(C)(=O)=O)c2c1 [GSK2801] | 0.964 | 0.782 |
| O=C(O)CCNc1cc(N2CCc3ccccc3CC2)nc(-c2ccccn2)n1 [GSK J1] | 1 | 0.832 |
| Cc1cc(SCc2sc(-c3ccc(C(F)(F)F)c(F)c3)nc2C)ccc1OCC(=O)O [GW0742] | 0.763 | 0.93 |
| O=C(O)Cc1cccc(OCCCN(Cc2cccc(C(F)(F)F)c2Cl)CC(c2ccccc2)c2ccccc2)c1 [GW3965 HCl] | 0.923 | 0.825 |
| O=C(Nc1ccccc1)c1cc([N+](=O)[O-])ccc1Cl [GW9662] | 0.931 | 0.936 |
| CC(C)c1cc(-c2n[nH]c(=O)n2-c2ccc3c(ccn3C)c2)c(O)cc1O [Ganetespib (STA-9090)] | 0.483 | 0.266 |
| Nc1ccn([C@@H]2O[C@H](CO)[C@@H](O)C2(F)F)c(=O)n1 [Gemcitabine HCl] | 0.57 | 0.583 |
| CCn1c2ccccc2c2cc(CNCc3ccccc3OC)ccc21 [HLCL-61 HCL] | 0.957 | 0.856 |
| Cc1nc(Nc2cnn(C3CCNCC3)c2)nc2c1N(C)C(=O)c1cc3ccccc3cc1N2C [HTH-01-015] | 1.2 | 0.823 |
| CCNC(=O)C[C@@H]1N=C(c2ccc(Cl)cc2)c2cc(OC)ccc2-n2c(C)nnc21 [I-BET-762] | 0.888 | 0.777 |
| CCn1cc(-c2cccc(C(F)(F)F)c2)c2sc(C(=N)NC3CCS(=O)(=O)CC3)cc2c1=O [I-BRD9] | 1.01 | 0.833 |
| O=C(O)c1ccc(O)c2ncccc12 [IOX1] | 0.95 | 0.871 |
| O=C(CSc1nc2c(c(=O)n1-c1ccccc1)SCC2)Nc1ccc(-c2ccccc2)cn1 [IWP-L6] | 0.968 | 0.804 |
| O=C(Nc1cccc2cccnc12)c1ccc(N2C(=O)[C@@H]3[C@H](C2=O)[C@@H]2C=C[C@H]3C2)cc1 [IWR-1-endo] | 0.938 | 0.808 |
| CNC(=O)[C@H](Cc1c[nH]c2ccccc12)NC(=O)[C@@H](CC(=O)NO)CC(C)C [Ilomastat (GM6001, Galardin)] | 1.05 | 0.809 |
